Data taken from ChEMBL document CHEMBL1201862, “PubChem BioAssay data set” (2004).
Each block holds one molecule with its values, some of them ahead of it. Calls of active or inactive are those of the source.

What was measured:
[1] = molecular target: Intestinal-type alkaline phosphatase (Mus musculus, UniProt P24822); assay: PubChem AID 488785; assay type: functional
Leucine aminopeptidase = molecular target: T1, Leucine aminopeptidase (Plasmodium falciparum 3D7, UniProt Q8IL11); assay: P. falciparum M17LAP inhibitors, primary screen, biochemical, fluorogenic H-Leu-NHMec substrate, 1536-well (AID 1619); assay type: functional
T1 sequence (Q8IL11 whole entry): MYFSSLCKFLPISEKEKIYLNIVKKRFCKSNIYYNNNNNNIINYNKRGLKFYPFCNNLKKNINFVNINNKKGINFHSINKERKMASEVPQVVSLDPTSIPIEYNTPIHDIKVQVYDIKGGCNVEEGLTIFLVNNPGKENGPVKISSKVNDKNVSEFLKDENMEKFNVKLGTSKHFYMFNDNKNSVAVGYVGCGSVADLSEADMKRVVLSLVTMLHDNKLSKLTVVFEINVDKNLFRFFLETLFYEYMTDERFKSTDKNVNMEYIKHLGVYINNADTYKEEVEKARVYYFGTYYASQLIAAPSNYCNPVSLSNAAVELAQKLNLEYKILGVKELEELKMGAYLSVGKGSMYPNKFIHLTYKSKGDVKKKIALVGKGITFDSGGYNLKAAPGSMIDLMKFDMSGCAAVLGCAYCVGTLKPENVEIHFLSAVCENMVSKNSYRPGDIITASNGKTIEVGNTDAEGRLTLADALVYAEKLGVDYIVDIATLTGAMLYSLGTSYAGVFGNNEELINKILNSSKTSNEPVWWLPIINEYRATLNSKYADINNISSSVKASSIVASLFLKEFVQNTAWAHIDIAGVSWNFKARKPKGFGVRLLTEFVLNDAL

Estrogen receptor beta [2] = molecular target: T2, Estrogen receptor beta (Homo sapiens, UniProt Q92731); assay: ERβ–SRC-3 coactivator interaction inhibitors, confirmation, orthogonal assay, biochemical, ELISA, streptavidin-HRP readout (AID 1060)
Estrogen receptor beta [3] = molecular target: T2, Estrogen receptor beta
Large T antigen = Large T antigen (Simian virus 40, UniProt P03070); assay type: functional, Betapolyomavirus macacae;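 further: Confirmatory-stage PubChem screen for compounds that inhibit SV40 T antigen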
[4] = molecular target: T3, Histone-lysine N-methyltransferase NSD2 (Homo sapiens, UniProt O96028); assay type: biochemical
T3 sequence (O96028 whole entry): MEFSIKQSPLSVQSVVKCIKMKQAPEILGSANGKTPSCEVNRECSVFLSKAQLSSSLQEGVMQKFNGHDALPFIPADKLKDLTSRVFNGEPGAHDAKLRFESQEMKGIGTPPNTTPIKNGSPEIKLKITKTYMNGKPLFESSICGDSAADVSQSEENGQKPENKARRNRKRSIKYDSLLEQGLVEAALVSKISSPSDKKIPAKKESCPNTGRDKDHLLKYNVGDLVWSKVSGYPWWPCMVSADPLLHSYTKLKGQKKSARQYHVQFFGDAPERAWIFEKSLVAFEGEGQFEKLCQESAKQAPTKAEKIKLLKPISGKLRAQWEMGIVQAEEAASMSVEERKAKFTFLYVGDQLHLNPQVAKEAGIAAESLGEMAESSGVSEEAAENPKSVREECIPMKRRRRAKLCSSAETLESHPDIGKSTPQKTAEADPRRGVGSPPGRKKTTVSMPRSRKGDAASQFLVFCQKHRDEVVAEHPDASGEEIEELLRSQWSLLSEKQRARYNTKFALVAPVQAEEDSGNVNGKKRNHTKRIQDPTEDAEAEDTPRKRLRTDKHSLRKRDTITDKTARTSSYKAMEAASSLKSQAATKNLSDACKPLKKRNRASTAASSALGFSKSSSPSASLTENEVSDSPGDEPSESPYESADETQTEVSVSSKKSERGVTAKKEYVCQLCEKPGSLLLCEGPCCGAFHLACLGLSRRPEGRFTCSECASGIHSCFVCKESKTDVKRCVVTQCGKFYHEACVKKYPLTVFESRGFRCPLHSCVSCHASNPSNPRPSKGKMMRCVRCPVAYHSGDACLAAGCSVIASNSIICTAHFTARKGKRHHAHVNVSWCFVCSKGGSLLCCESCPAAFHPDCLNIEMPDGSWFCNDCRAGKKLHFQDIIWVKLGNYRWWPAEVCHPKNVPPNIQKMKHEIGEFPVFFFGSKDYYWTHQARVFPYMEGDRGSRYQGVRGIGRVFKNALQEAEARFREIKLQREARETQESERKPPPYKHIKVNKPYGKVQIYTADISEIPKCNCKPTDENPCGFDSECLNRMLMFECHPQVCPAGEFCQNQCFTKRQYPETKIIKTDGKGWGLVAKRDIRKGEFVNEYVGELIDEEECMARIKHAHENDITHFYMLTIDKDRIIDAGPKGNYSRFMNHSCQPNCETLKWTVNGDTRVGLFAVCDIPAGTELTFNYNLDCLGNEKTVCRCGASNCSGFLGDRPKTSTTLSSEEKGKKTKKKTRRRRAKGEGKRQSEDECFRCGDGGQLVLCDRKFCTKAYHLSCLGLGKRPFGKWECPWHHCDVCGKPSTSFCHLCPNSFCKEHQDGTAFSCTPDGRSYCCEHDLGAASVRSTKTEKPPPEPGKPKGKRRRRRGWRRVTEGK

Bcl-2-like protein 1 = Bcl-2-like protein 1 (Homo sapiens, UniProt Q07817); assay: BCL-XL inhibitors, dose response, selectivity assay for MCL1 inhibitor project, biochemical, fluorescence polarization, 1536-well (AID 2218)
Albumin = Albumin (Bos taurus, UniProt P02769); assay: Counterscreen for inhibitors of T-cell receptor (TCR)-CD3 interaction: Fluorescence-based biochemical high throughput dose response assay to identify inhibitors of T-cell receptor (TCR)-CD3 interaction using a TAMRA-labeled BSA probe.; assay type: functional
[5] = C. albicans growth with fluconazole, confirmation, fluorescence, retest (AID 2467); assay type: functional, cell-based
[6] = molecular target: Induced myeloid leukemia cell differentiation protein Mcl-1 (Homo sapiens, UniProt Q07820); assay: MCL1-BIM BH3 interaction inhibitors, dose response, biochemical, fluorescence polarization, BIM-BH3 peptide, 1536-well (AID 2217)
[7] = molecular target: T4, Alkaline phosphatase, tissue-nonspecific isozyme (Homo sapiens, UniProt P05186); assay: TNAP enzyme inhibition by screening hits, dose response, selectivity assay for mouse IAP inhibitor project, biochemical, human TNAP, uHTS hits (AID 488906); assay type: functional
T4 sequence (P05186 whole entry): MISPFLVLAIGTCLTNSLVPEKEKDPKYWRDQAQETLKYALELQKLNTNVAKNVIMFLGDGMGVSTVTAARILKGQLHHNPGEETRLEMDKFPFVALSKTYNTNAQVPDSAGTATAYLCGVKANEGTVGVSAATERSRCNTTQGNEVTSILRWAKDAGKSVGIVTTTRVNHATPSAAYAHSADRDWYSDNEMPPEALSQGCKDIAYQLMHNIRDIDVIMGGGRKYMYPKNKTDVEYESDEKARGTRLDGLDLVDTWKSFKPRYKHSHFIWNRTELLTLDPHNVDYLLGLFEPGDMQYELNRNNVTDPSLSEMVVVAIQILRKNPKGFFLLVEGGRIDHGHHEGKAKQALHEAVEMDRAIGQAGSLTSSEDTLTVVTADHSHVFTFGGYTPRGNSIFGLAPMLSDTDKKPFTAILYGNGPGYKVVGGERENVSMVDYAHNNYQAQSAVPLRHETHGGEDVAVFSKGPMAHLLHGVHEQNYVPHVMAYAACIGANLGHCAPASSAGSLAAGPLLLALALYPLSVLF

[8] = NIH-3T3 fibroblast cytotoxicity, dose response, cytotoxicity control, cell-based, fluorescence, Alamar Blue, secondary assay (AID 2327); assay type: functional;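 further: NIH-3T3 mouse fibroblasts cultured with fluconazole at 8 µg/mL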
[9] = molecular target: Intestinal-type alkaline phosphatase (Homo sapiens, UniProt P09923); assay: inhibition of human intestinal alkaline phosphatase – biochemical, dose response (AID 488876); assay type: functional
[10] = molecular target: T5, Aryl hydrocarbon receptor (Homo sapiens, UniProt P35869); assay: Luminescence-based cell-based high throughput dose response assay for activators of the Aryl Hydrocarbon Receptor (AHR). [Related pubchem assays: 2796 (Primary screen (AHR activators in singlicate)), 2845 (Confirmation screen (AHR activators in triplicate)), 434939 (Counterscreen (PXR activators in triplicate)), 2804 (Summary (AHR activators))]; assay type: ADME
T5 sequence (P35869 whole entry): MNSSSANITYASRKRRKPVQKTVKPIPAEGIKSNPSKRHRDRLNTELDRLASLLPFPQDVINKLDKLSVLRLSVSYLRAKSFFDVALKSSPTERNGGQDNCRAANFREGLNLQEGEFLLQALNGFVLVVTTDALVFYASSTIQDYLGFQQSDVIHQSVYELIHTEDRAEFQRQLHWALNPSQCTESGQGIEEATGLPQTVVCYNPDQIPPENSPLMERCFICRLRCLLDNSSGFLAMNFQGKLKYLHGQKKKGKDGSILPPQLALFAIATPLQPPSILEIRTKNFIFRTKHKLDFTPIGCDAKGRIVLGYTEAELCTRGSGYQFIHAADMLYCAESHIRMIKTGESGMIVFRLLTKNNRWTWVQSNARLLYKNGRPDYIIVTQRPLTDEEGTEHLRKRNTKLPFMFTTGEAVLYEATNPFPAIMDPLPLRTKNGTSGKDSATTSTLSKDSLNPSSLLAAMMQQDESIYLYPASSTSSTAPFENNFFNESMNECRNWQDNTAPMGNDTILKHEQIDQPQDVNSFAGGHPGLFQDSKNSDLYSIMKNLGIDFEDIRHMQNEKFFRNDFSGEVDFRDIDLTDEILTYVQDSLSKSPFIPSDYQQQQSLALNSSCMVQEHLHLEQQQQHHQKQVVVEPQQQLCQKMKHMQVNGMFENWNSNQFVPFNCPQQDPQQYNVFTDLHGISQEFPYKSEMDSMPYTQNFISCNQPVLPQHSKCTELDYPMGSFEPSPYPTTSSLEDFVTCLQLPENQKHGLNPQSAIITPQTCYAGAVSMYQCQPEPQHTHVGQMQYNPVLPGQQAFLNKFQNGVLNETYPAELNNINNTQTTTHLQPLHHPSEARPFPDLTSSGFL

Galanin receptor type 2 = Galanin receptor type 2 (Homo sapiens, UniProt O43603); assay: Dose Response cell-based high-throughput screening assay to identify antagonists of galanin receptor 2 (GALR2). [Related pubchem assays: 828, 866 ]; assay type: functional
HEK293 [11] = assay: cells; settings: Homo sapiens
HEK293 [12] = assay: cells; settings: Homo sapiens; remark: listed apart in the source

T2 sequence (Q92731 whole entry): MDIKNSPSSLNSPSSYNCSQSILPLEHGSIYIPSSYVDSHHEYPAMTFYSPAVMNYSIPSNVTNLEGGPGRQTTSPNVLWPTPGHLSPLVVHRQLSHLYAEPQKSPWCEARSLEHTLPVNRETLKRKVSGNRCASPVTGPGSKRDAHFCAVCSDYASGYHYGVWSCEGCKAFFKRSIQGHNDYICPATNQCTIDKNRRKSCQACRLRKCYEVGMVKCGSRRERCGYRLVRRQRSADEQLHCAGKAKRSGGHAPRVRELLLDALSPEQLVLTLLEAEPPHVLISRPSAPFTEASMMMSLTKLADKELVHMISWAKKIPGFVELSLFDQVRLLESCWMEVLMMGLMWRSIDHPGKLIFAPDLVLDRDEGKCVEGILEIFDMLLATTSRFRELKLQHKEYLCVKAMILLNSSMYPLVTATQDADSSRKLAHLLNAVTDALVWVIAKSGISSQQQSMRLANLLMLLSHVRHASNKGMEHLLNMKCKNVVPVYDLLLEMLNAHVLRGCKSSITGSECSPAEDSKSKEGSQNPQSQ
Chain of Large T antigen (P03070 whole entry): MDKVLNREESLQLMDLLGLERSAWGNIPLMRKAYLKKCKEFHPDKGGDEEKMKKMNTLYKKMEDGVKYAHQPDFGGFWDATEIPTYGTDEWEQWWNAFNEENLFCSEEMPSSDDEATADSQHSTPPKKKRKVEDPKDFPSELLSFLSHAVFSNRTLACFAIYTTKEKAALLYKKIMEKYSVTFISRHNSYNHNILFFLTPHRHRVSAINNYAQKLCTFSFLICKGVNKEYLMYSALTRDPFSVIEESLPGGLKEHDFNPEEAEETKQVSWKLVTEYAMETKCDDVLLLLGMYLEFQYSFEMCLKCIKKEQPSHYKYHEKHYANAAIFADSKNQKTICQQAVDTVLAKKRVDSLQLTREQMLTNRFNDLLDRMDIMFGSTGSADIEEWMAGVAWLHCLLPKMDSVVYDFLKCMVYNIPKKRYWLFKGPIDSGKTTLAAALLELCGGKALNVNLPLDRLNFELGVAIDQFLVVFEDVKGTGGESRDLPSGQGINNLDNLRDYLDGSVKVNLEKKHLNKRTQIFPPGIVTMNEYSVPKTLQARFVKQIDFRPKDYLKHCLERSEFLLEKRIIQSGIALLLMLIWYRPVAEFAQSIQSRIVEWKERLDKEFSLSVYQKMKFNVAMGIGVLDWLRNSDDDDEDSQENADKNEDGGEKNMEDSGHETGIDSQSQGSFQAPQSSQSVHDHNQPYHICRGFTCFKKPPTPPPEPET
Chain of Intestinal-type alkaline phosphatase (Homo sapiens, UniProt P09923) (P09923 whole entry): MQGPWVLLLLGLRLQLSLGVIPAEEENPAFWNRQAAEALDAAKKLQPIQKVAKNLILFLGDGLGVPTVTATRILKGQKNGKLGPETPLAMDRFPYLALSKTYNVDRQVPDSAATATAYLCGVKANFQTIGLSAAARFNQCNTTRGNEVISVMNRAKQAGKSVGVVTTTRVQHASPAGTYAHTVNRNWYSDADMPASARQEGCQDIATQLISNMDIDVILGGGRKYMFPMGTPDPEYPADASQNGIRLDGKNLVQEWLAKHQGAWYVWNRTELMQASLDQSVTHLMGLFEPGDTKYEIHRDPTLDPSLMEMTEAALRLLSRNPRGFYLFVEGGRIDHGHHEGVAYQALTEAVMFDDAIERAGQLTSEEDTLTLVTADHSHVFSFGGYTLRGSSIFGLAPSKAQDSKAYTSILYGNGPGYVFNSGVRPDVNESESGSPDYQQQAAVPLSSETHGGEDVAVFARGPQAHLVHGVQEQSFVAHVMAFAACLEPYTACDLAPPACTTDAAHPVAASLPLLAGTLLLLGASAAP
Chain of Galanin receptor type 2 (O43603 whole entry): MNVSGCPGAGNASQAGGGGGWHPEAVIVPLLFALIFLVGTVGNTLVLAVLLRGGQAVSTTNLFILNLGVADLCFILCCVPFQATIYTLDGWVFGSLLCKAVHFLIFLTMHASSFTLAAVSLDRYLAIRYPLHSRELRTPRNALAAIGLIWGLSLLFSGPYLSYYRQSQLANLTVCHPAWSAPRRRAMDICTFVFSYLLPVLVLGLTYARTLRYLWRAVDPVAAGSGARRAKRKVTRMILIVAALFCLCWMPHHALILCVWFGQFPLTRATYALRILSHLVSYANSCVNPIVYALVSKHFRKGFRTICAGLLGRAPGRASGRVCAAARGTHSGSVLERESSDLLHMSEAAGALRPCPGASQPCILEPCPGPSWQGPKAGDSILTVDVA
Chain of Bcl-2-like protein 1 (Q07817 whole entry): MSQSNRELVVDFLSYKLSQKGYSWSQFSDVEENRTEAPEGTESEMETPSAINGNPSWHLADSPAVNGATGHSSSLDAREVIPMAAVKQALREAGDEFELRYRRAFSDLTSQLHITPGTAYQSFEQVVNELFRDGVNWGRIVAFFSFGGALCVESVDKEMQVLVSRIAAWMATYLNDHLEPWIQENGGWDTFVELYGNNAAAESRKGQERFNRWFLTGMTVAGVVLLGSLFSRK
Chain of Albumin (P02769 whole entry): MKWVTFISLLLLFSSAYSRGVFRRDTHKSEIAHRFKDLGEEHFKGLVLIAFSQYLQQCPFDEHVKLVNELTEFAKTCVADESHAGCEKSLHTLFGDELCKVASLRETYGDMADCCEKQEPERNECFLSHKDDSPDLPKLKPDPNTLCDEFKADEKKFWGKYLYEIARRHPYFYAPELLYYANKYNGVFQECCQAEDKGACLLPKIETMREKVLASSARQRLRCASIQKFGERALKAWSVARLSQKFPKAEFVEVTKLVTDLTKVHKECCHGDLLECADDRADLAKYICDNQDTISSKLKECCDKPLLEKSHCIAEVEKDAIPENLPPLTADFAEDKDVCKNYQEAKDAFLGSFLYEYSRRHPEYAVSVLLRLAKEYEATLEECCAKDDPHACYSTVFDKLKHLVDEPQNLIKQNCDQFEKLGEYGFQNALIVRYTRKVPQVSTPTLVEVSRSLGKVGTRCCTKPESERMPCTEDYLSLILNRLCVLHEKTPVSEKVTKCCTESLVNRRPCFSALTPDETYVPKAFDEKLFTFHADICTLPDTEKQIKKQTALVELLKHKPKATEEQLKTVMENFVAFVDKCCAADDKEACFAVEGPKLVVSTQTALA
Chain of Induced myeloid leukemia cell differentiation protein Mcl-1 (Q07820 whole entry): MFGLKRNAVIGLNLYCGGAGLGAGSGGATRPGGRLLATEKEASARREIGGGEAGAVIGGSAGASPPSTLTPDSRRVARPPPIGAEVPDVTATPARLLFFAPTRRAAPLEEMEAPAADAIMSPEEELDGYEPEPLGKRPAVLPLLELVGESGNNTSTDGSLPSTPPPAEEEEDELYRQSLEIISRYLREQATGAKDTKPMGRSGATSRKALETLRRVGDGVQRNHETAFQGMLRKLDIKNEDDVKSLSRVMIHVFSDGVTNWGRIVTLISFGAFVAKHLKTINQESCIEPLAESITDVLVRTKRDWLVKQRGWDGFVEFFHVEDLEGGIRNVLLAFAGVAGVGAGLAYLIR
Chain of Intestinal-type alkaline phosphatase (Mus musculus, UniProt P24822) (P24822 whole entry): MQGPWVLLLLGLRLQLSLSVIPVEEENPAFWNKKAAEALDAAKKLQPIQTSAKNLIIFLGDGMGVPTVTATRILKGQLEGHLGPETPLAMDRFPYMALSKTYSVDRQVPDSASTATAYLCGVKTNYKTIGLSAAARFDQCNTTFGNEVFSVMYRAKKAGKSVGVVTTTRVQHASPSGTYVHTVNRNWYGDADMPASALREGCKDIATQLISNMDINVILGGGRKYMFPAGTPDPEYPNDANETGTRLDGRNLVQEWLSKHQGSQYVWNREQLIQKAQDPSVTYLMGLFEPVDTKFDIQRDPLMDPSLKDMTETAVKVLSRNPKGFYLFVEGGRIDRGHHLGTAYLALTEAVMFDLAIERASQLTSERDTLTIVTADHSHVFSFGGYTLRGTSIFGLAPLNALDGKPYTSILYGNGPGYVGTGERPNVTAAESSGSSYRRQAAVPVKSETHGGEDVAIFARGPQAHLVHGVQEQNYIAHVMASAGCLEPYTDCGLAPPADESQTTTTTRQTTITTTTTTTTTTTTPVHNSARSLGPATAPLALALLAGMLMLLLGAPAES

Structure (SMILES): CCn1c(SCC(=O)c2ccc(O)c(O)c2)nnc1-c1ccccc1OC
IC50 [1]: 1.43 µM (active)
IC50 (Leucine aminopeptidase): 24.4 µM (active)
IC50 (Estrogen receptor beta [2]): 93.8 µM (not active)
IC50 (Estrogen receptor beta [3]): 5.06 µM (active)
IC50 (Large T antigen): 7.83 µM (active)
AC50 [4]: 9.05 µM (active)
IC50 (Bcl-2-like protein 1): > 109 µM (not active)
IC50 (Albumin): > 94.1 µM (inactive)
EC50 [5]: > 38 µM (not active)
IC50 [6]: 37.4 µM (not active)
IC50 [7]: > 100 µM (inactive)
EC50 [8]: > 160 µM (inactive)
IC50 [9]: > 100 µM (inactive)

EC50 [10]: 0.195 µM (active)
Structure (SMILES): COc1ccccc1NC(=O)c1ccc2c(c1)nnn2C

Structure (SMILES): CN(C(S)=NC1CCCCC1)C1(c2ccccc2Cl)CCCCC1=O (configuration not stated)
IC50 (Galanin receptor type 2): > 42 µM (not active)
EC50 (HEK293 [11]): > 59.6 µM (inactive)
EC50 (HEK293 [12]): > 59.6 µM (inactive)
